Patent US4327093A, “3,7-Disubstituted-2 or 3-cephem-4-carboxylic acid compounds” (Fujisawa Pharmaceutical Co., Ltd., priority 1978, dated 1982)
Values after ≈ are worked out from the molar mass of the structure shown.

Legend:
[1] = test system: Proteus mirabilis 18; experiment: Minimal inhibitory concentration (MIC) by agar streak, HI-agar, 37° C., 20 hours; assay type: cell-based; conditions: 10^6 viable cells per ml, 37° C. for 20 hours
Procedure: (§1) One loopful of an overnight culture of each test strain in Trypticase-soy broth (10^6 viable cells per ml.) was streaked on heart infusion agar (HI-agar) containing graded concentrations of antibiotics, and the minimal inhibitory concentration (MIC) was expressed in terms of μg/ml after incubation at 37° C. for 20 hours.

[2] = test system: Klebsiella pneumoniae 20; experiment: as above; assay type: cell-based; conditions: 10^6 viable cells per ml, 37° C. for 20 hours
Procedure: as §1

MIC [1] [µg/mL]	MIC [2] [µg/mL]	SMILES
0.05 (≈ 0.0927 µM)	0.1 (≈ 0.185 µM)	CO/N=C(\C(=O)NC1C(=O)N2C(C(=O)O)=C(COC(=O)N3CCN(C)CC3)CSC12)c1csc(N)n1 (stereo not shown) [(1)]
0.2 (≈ 0.37 µM)	0.05 (≈ 0.0925 µM)	CO/N=C(\C(=O)NC1C(=O)N2C(C(=O)O)=C(COC(=O)N3CCN(C)CC3)CSC12)c1nsc(N)n1 (stereo not shown) [(2)]
